Test results: patent US9073903B2, “Imidazole-2,4-dione inhibitors of casein kinase 1” (Jasco Pharmaceuticals, LLC, priority 2010, dated 2015)
Read-outs that look alike come from different tables or passages of the source.

What was measured:
[1] = PAMPA, 5 h, 10 μM, pH 7.4
Protocol: The target concentration in the assay was 10 μM, prepared by diluting (1000-fold) the 10 mM stock solutions in DMSO into PBS, pH 7.4. The final DMSO concentration was 0.1%. The 10 μM solutions were added, 300 μL, to wells in the donor plate. The receiver plate, which contained 200 μL of PBS, pH 7.4 per well, was placed in the donor plate and the assembly was incubated for 5 hours at ambient temperature. At the end of the incubation period the plates were separated and the compound concentrations in each solution were determined by LC/MS/MS. The assay was performed in triplicate.
C0 is the initial concentration in the donor well (μM)
CD(t) is the concentration in the donor well after incubation (μM)
CA(t) is the concentration in the acceptor well after incubation (μM)
VD is the volume in the donor well (0.3 mL)
VA is the volume in the acceptor well (0.2 mL)
CE is (CD(t)VD+CA(t)VA)/(VD+VA)
A is the filter area (0.3 cm2)
t is the incubation time (18,000 s).

[2] = Hepatic microsomal stability, rat; type: in vitro ADME, rat (Sprague-Dawley)
Protocol: (§1) Hepatic microsmal assays were performed with compound 5114 in human and rat (Sprague-Dawley). Protein concentrations of 0.4 (human) and 0.2 mg/mL (rat) with an NADPH regenerating cofactor system (2.6 mM NADP+, 6.6 mM glucose-6-phosphate, 0.8 U/mL glucose-6-phosphate dehydrogenase, and 6.6 mM magnesium chloride) were used. A 100 μM 20% DMSO/80% acetonitrile working stock of each of the compounds was diluted 100 fold resulting in 1 μM compound/1% final organic reaction concentrations. Time points were removed at 0 and 60 minutes. At each time point, 100 μL of the incubation suspension was added to 200 μL of acetonitrile containing internal standard (tolbutamide), followed by centrifugation at 3,220 rcf for 10 minutes. Two hundred (200) μL of the resulting supernatants were removed, dried under nitrogen and reconstituted in 100 μL of 2 mM ammonium acetate, 0.1% formic acid in 50% methanol prior to analysis by LC/MS/MS. Testosterone and dexamethasone were used as reference compounds.

[3] = Hepatic microsomal stability, human; type: in vitro ADME
Protocol: as §1

[4] = test system: different kinases; assay: Kinase activity screening by Millipore UK Ltd, percent kinase activity at 300 nM of compound (Table 31); type: biochemical
Protocol: Protocols for Kinase Activity Screening: Kinase screening was performed by Millipore UK Ltd. Kinase dilution buffer composition: 20 mM MOPS, 1 mM EDTA, 0.01% Brij-35, 5% Glycerol, 0.1% b-mercaptoethanol, 1 mg/mL BSA.

[5] = test system: Caco-2 cells; assay: Inhibition of Caco-2 cells (MTS cell proliferation); type: cell-based; conditions: for inhibition at 0.4 µM / inhibition at 0.8 µM / inhibition at 1.6 µM / inhibition at 3.2 µM / inhibition at 6.25 µM / inhibition at 12.5 µM / inhibition at 25 µM / inhibition at 50 µM / inhibition at 100 µM / IC50: Homo sapiens; for inhibition at 0.4 µM: 0.400 μM; for inhibition at 0.4 µM / inhibition at 0.8 µM / inhibition at 1.6 µM / inhibition at 3.2 µM / inhibition at 6.25 µM / inhibition at 12.5 µM / inhibition at 25 µM / inhibition at 50 µM / inhibition at 100 µM: 72 hours; for inhibition at 0.8 µM: 0.800 μM; for inhibition at 1.6 µM: 1.600 μM; for inhibition at 3.2 µM: 3.200 μM; for inhibition at 6.25 µM: 6.250 μM; for inhibition at 12.5 µM: 12.500 μM
Protocol: Inhibition of Caco-2 Cells Cells: Caco-2 cells, ATCC Passage 33, Mycoplasma free. Medium: DMEM Medium (GIBCO Cat #11995073) supplemented with 10% fetal bovine serum (Hyclone Cat #SH30396.03). Seeding: 3,000 cells/well (100 μL) into 96-wells plate, incubated overnight at 37° C. in a humidified, 5% CO2 atmosphere. […] Fifty microliters (50 μL) of diluted compounds were added into each well. The final concentrations of the positive control and test compounds were shown in the graphs. The cells were incubated for 72 hours after addition of the test compounds. MTS: 15 uL of MTS solution (Promega Cat #G5430) was added into each well and incubated with cells for 4 hours at 37° C. in a humidified, 5% CO2 atmosphere. Measurement: Absorbance at 490 nm was measured using MD Spectramax Plus384 spectrophotometer. The regression curves were calculated by the GraphPad Prism 5 using “log(inhibitor) vs response—variable slope”. Calculation: % of inhibition=(ODzero ctrl−OD compound)/ODzero ctrl*100.

[6] = replicate 1, read-out: % of inhibition 1
[7] = replicate 2, read-out: % of inhibition 2

For `C[C@@H]1C[C@H]2[C@@H]3CCC4=CC(=O)C=C[C@]4(C)[C@@]3(F)[C@@H](O)C[C@]2(C)[C@@]1(O)C(=O)CO` [Dexamethasone], the “Mass Retention R” value [1] was 9%, the “% remaining after incubation, Rat Microsomes” value ([2]; Sprague-Dawley, rat, microsomes, 1 h, 1 μM) was 91% and the “% remaining after incubation, Human Microsomes” value ([3]; human, microsomes, 1 h, 1 μM) was 85%.

In the case of `Nc1ccc2c(c1)CN(c1nccc(/C=C3\NC(=O)NC3=O)n1)CC2` [Example 64, (Z)-5-((2-(7-amino-3,4-dihydroisoquinolin-2(1H)-yl)pyrimidin-4-yl)methylene)imidazolidine-2,4-dione], the “Percent Kinase Activity of Enzyme CK1” value [4] is reported as 81%, the “Percent Kinase Activity of Enzyme CK1g2” value [4] is reported as 75% and the “Percent Kinase Activity of Enzyme CK2” value [4] is reported as 65%. The “Percent Kinase Activity of Enzyme Pim-1” value [4] was 83%, the “Percent Kinase Activity of Enzyme Pim-2” value [4] was 81% and the “Percent Kinase Activity of Enzyme Pim-3” value [4] was 97%.

For `NCC1CCN(c2nccc(/C=C3\NC(=O)NC3=O)n2)CC1` [Example 65, (Z)-5-((2-(4-(aminomethyl)piperidin-1-yl)pyrimidin-4-yl)methylene)imidazolidine-2,4-dione], the “Percent Kinase Activity of Enzyme CK1” value [4] was 97%, the “Percent Kinase Activity of Enzyme CK1g2” value [4] was 96% and the “Percent Kinase Activity of Enzyme CK2” value [4] was 94%. For the same compound, the “Percent Kinase Activity of Enzyme Pim-1” value [4] was 92%, the “Percent Kinase Activity of Enzyme Pim-2” value [4] was 78% and the “Percent Kinase Activity of Enzyme Pim-3” value [4] was 76%.

In the case of `Nc1cccc2c1CCN(c1nccc(/C=C3\NC(=O)NC3=O)n1)C2` [Example 66, (Z)-5-((2-(5-amino-3,4-dihydroisoquinolin-2(1H)-yl)pyrimidin-4-yl)methylene)imidazolidine-2,4-dione], the “Percent Kinase Activity of Enzyme CK1” value [4] is reported as 98%, the “Percent Kinase Activity of Enzyme CK1g2” value [4] is reported as 77% and the “Percent Kinase Activity of Enzyme CK2” value [4] is reported as 78%. For the same compound, the “Percent Kinase Activity of Enzyme Pim-1” value [4] was 91%, the “Percent Kinase Activity of Enzyme Pim-2” value [4] was 86% and the “Percent Kinase Activity of Enzyme Pim-3” value [4] was 96%.

In the case of `CN(c1nccc(/C=C2\NC(=O)NC2=O)n1)[C@H]1CCCNC1` [Example 67, (S,Z)-5-((2-(methyl(piperidin-3-yl)amino)pyrimidin-4-yl)methylene)imidazolidine-2,4-dione], the “Percent Kinase Activity of Enzyme CK1” value [4] is reported as 104%, the “Percent Kinase Activity of Enzyme CK1g2” value [4] is reported as 111% and the “Percent Kinase Activity of Enzyme CK2” value [4] is reported as 94%. The “Percent Kinase Activity of Enzyme Pim-1” value [4] was 98%, the “Percent Kinase Activity of Enzyme Pim-2” value [4] was 99% and the “Percent Kinase Activity of Enzyme Pim-3” value [4] was 114%.

In the case of `O=C1NC(=O)/C(=C/c2ccnc(N3CCC(CNCc4ccc5ccccc5n4)CC3)n2)N1` [Example 68, (Z)-5-((2-(4-(((quinolin-2-ylmethyl)amino)methyl)piperidin-1-yl)pyrimidin-4-yl)methylene)imidazolidine-2,4-dione], the “Percent Kinase Activity of Enzyme CK1” value [4] is reported as 97%, the “Percent Kinase Activity of Enzyme CK1g2” value [4] is reported as 84% and the “Percent Kinase Activity of Enzyme CK2” value [4] is reported as 109%. For the same compound, the “Percent Kinase Activity of Enzyme Pim-1” value [4] was 75%, the “Percent Kinase Activity of Enzyme Pim-2” value [4] was 69% and the “Percent Kinase Activity of Enzyme Pim-3” value [4] was 63%.

In the case of `O=C1NC(=O)/C(=C/c2ccnc(N3CCC(CNCc4cccc(-c5ccsc5)n4)CC3)n2)N1` [Example 69, (Z)-5-((2-(4-((((6-(thiophen-3-yl)pyridin-2-yl)methyl)amino)methyl)piperidin-1-yl)pyrimidin-4-yl)methylene)imidazolidine-2,4-dione], the “Percent Kinase Activity of Enzyme CK1” value [4] is reported as 92%, the “Percent Kinase Activity of Enzyme CK1g2” value [4] is reported as 76% and the “Percent Kinase Activity of Enzyme CK2” value [4] is reported as 106%. The “Percent Kinase Activity of Enzyme Pim-1” value [4] was 46%, the “Percent Kinase Activity of Enzyme Pim-2” value [4] was 86% and the “Percent Kinase Activity of Enzyme Pim-3” value [4] was 59%.

In the case of `CNC(=O)c1cc(Oc2ccc(NC(=O)Nc3ccc(Cl)c(C(F)(F)F)c3)cc2)ccn1` [Sorafenib], the inhibition at 0.4 µM [5, 6] is reported as 0.049%, the inhibition at 0.4 µM [5, 7] is reported as 0.315% and the inhibition at 0.8 µM [5, 6] is reported as 9.97%. It also gave an inhibition at 0.8 µM [5, 7] of 6.24%, an inhibition at 1.6 µM [5, 6] of 14.3% and an inhibition at 1.6 µM [5, 7] of 11.4%. It also gave an inhibition at 3.2 µM [5, 6] of 17%, an inhibition at 3.2 µM [5, 7] of 9.39% and an inhibition at 6.25 µM [5, 6] of 19.9%. The inhibition at 6.25 µM [5, 7] was 23.5%, the inhibition at 12.5 µM [5, 6] was 76.8% and the inhibition at 12.5 µM [5, 7] was 76.3%. The inhibition at 25 µM [5, 6] was 100%, the inhibition at 25 µM [5, 7] was 98.5% and the inhibition at 50 µM [5, 6] was 102%. It also gave an inhibition at 50 µM [5, 7] of 99%, an inhibition at 100 µM [5, 6] of 84.1% and an inhibition at 100 µM [5, 7] of 96.7%. For the same compound, the IC50 ([5]; Table 18, read-out: Caco-2* 50% inhibition concentration) was 8.78 µM, the IC50 ([5]; Table 26, 72 hours, read-out: 50% viability conc.) was 8.77 µM and the IC50 ([5]; Table 26, 72 hours, read-out: IC50) was 9.37 µM. The Maximal inhibition % ([5]; Table 26, 72 hours) was 100%.

For `C[C@]12CC[C@H]3[C@@H](CCC4=CC(=O)CC[C@@]43C)[C@@H]1CC[C@@H]2O` [Testosterone], the “% remaining after incubation, Rat Microsomes” value ([2]; 1 μM compound, 0.2 mg/mL protein, NADPH regenerating system, 60 minutes) was 0.6% and the “% remaining after incubation, Human Microsomes” value ([3]; 1 μM compound, 0.4 mg/mL protein, NADPH regenerating system, 60 minutes) was 42%.
